Reference: US10653698B2, “Methods of improving myocardial performance in Fontan patients using udenafil compositions” (priority 2014, dated 2020)
Read-outs that look alike come from different tables or passages of the source.

Columns and labels:
[1] = tested on: adolescents with single ventricle physiology after Fontan palliation; assay type: in vivo, human
Protocol: A Phase I/II dose escalation trial of Udenafil in adolescents with single ventricle physiology after Fontan palliation was conducted. […] The 36 subjects enrolled in the trial were comprised of 6 cohorts, as described in Table 1. The goals for this trial were to assess the safety of udenafil at multiple dose levels over a five-day period, the pharmacokinetic profile of udenafil in adolescents with Fontan physiology, and the short-term effect of udenafil on pharmacodynamic measures of exercise capacity, ventricular performance, and vascular function. Multiple doses of udenafil or a pharmaceutically acceptable salt thereof were administered to male and female Fontan patients who are 14-18 years of age. Inclusion Criteria for the trial were: • Males and females with Fontan physiology who are 14-18 years of age. • Willingness to return to center to complete blood draws and exercise tests as described in the study protocol. • Patients must agree to abstain from alcohol, caffeinated beverages, and grapefruit juice for the duration of the trial. • Informed assent from subject and informed consent from parent/legal guardian as appropriate. […] The purpose of this example was to describe and evaluate the safety of the udenafil compositions administered in the study described in Example 1. Tables 3-6 present numbers of subjects reporting at least one AE; data are presented by treatment group. The counts are presented by AE category (Table 3) and by preferred term (Table 6). Tables 3-6 report all AEs by category (Table 3), serious AEs (Table 4), non-serious AEs (Table 5), and all AEs by preferred term (Table 6). […] Tables 9-12 present AEs by preferred term (similar to Table 6), but additionally report the number of subjects with an AE and the number of AEs (Table 9), the number of AE events/subjects grouped by treatment group and by related (including possibly or probably) vs. not related to the study drug (Table 10), mild vs. moderate/severe (Table 11), and expected vs. unexpected AEs (Table 12).

[2] = tested on: adolescents with single ventricle physiology after Fontan palliation; assay: Echocardiographic assessment of ventricular performance (blood pool MPI, tissue Doppler MPI, average isovolumic contraction and relaxation); assay type: in vivo, human; parameters: Average Isovolumic Contraction, Baseline measurement / Average Isovolumic Contraction, Follow-up measurement: unit not given here; conditions: for Average Isovolumetric Relaxation, Follow-up measurement / Average Isovolumetric Relaxation, Baseline measurement: in ms (unit assumed)
Text: Ventricular performance and cardiac contractility are important measurements that can reveal impairment of cardiovascular health before overt heart failure is present. Ventricular performance can be assessed using echocardiographic methods and quantified via a myocardial performance index or MPI. MPI is an index that combines systolic and diastolic function. Specifically, MPI is defined as the sum of isovolumic contraction time and isovolumic relaxation time divided by the ejection time.
Various versions of MPI are known in the art, and each version of MPI may be used to assess ventricular performance. For instance, MPI indices may include but are not limited to blood pool MPI, tissue doppler MPI, average isovolumetric contraction, and average isovolumetric relaxation.
The primary outcome of ventricular performance with assessed using echocardiographic methods and measured according to a myocardial performance Index (MPI). The MPI is a ventricular geometry-independent measure of combined systolic and diastolic ventricular performance (Charles S. Kleinman et al, 2008—Health and Fitness). It is obtained by indexing the sum of isovolumetric contraction and relaxation time to ejection time.
Table 18 summarizes results for the key outcome from the Echocardiographic Assessment of Ventricular Performance—Blood Pool MPI. Out of the 30 subjects enrolled in the treatment arms of the trial, 27 subjects had paired measurements. The structure of the table is similar to the one for exercise variables.
Tables 19-21 and FIGS. 9-15 report similar results for three other versions of MPI: Tissue Doppler MPI, and Average Isovolumetric Contraction and Relaxation.

[3] = cited from earlier work
ED patients = conditions: 50 mg or 75 mg once daily for 12 wk; cited from earlier work

CCCOc1ccc(S(=O)(=O)NCCC2CCCN2C)cc1-c1nc2c(CCC)nn(C)c2c(=O)[nH]1 (stereo not drawn) [udenafil]
AE category: Musculoskeletal/skin ([1]; 37.5 mg daily): 1 (17%) n (%) | AE category: Musculoskeletal/skin ([1]; 37.5 mg twice daily): 1 (17%) n (%) | AE category: Musculoskeletal/skin ([1]; 87.5 mg daily): 1 (17%) n (%) | AE category: Musculoskeletal/skin ([1]; 87.5 mg twice daily): 2 (33%) n (%) | AE category: Musculoskeletal/skin ([1]; 125 mg daily): 2 (33%) n (%) | subjects who had expected adverse events ([1]; both, human, in vivo, 5 day): 27 | subjects who had unexpected adverse events ([1]; both, human, in vivo, 5 day): 18 | Subjects with adverse events possibly related to the study drug ([1]; both, human, in vivo, 5 days): 21 subjects | Subjects with adverse events probably related to the study drug ([1]; both, human, in vivo, 5 days): 11 subjects | Subjects with adverse events related to the study drug ([1]; both, human, in vivo, 5 days): none | Subjects with adverse events unrelated to the study drug ([1]; both, human, in vivo, 5 days): 17 subjects | subjects who had a severe adverse event ([1]; both, human, in vivo, 5 days): 1 | subjects who had mild adverse events ([1]; both, human, in vivo, 5 days): 27 | subjects who had moderate adverse events ([1]; both, human, in vivo, 5 days): 13 | Serious adverse events ([1]; in vivo): No serious AEs were reported | Average Isovolumetric Relaxation, Difference, FU − BL ([2]; 37.5 mg daily, N 5): 9.0 ± 11.5 | Average Isovolumic Contraction, Difference, FU − BL ([2]; 37.5 mg daily, N 5): −3.5 ± 50.0 | Average Isovolumic Contraction, Follow-up measurement ([2]; 37.5 mg daily, N 5): 86.4 ± 22.7 | Blood Pool MPI, Difference, FU − BL ([2]; 37.5 mg daily, N 5): −0.052 ± 0.166 | Blood Pool MPI, Follow-up measurement ([2]; 37.5 mg daily, N 5): 0.504 ± 0.187 | Tissue Doppler MPI, Difference, FU − BL ([2]; 37.5 mg daily, N 5): −0.052 ± 0.398 | Tissue Doppler MPI, Follow-up measurement ([2]; 37.5 mg daily, N 5): 0.637 ± 0.206 | Average Isovolumetric Relaxation, Follow-up measurement ([2]; 37.5 mg daily, N 5): 94.0 ± 26.7 | Average Isovolumic Contraction, Baseline measurement ([2]; 37.5 mg daily, N 6): 99.2 ± 50.7 | Blood Pool MPI, Baseline measurement ([2]; 37.5 mg daily, N 6): 0.537 ± 0.304 | Tissue Doppler MPI, Baseline measurement ([2]; 37.5 mg daily, N 6): 0.701 ± 0.417 | Average Isovolumetric Relaxation, Baseline measurement ([2]; 37.5 mg daily, N 6): 83.8 ± 16.1 | Average Isovolumetric Relaxation, Difference, FU − BL ([2]; 37.5 mg twice daily, N 6): 0.8 ± 21.2 | Average Isovolumic Contraction, Baseline measurement ([2]; 37.5 mg twice daily, N 6): 109.4 ± 51.1 | Average Isovolumic Contraction, Difference, FU − BL ([2]; 37.5 mg twice daily, N 6): −5.8 ± 25.7 | Average Isovolumic Contraction, Follow-up measurement ([2]; 37.5 mg twice daily, N 6): 103.6 ± 32.4 | Blood Pool MPI, Baseline measurement ([2]; 37.5 mg twice daily, N 6): 0.496 ± 0.150 | Blood Pool MPI, Difference, FU − BL ([2]; 37.5 mg twice daily, N 6): −0.003 ± 0.102 | Blood Pool MPI, Follow-up measurement ([2]; 37.5 mg twice daily, N 6): 0.494 ± 0.087 | Tissue Doppler MPI, Baseline measurement ([2]; 37.5 mg twice daily, N 6): 0.818 ± 0.361 | Tissue Doppler MPI, Difference, FU − BL ([2]; 37.5 mg twice daily, N 6): −0.089 ± 0.142 | Tissue Doppler MPI, Follow-up measurement ([2]; 37.5 mg twice daily, N 6): 0.729 ± 0.230 | Average Isovolumetric Relaxation, Baseline measurement ([2]; 37.5 mg twice daily, N 6): 100.8 ± 32.3 | Average Isovolumetric Relaxation, Follow-up measurement ([2]; 37.5 mg twice daily, N 6): 101.6 ± 40.0 | Average Isovolumetric Relaxation, Difference, FU − BL ([2]; 87.5 mg daily, N 6): −6.9 ± 10.1 | Average Isovolumic Contraction, Baseline measurement ([2]; 87.5 mg daily, N 6): 122.4 ± 36.7 | Average Isovolumic Contraction, Difference, FU − BL ([2]; 87.5 mg daily, N 6): −7.4 ± 26.5 | Average Isovolumic Contraction, Follow-up measurement ([2]; 87.5 mg daily, N 6): 115.0 ± 32.9 | Blood Pool MPI, Baseline measurement ([2]; 87.5 mg daily, N 6): 0.588 ± 0.158 | Blood Pool MPI, Difference, FU − BL ([2]; 87.5 mg daily, N 6): −0.076 ± 0.144 | Blood Pool MPI, Follow-up measurement ([2]; 87.5 mg daily, N 6): 0.512 ± 0.163 | Tissue Doppler MPI, Baseline measurement ([2]; 87.5 mg daily, N 6): 0.804 ± 0.118 | Tissue Doppler MPI, Difference, FU − BL ([2]; 87.5 mg daily, N 6): −0.089 ± 0.131 | Tissue Doppler MPI, Follow-up measurement ([2]; 87.5 mg daily, N 6): 0.716 ± 0.142 | Average Isovolumetric Relaxation, Baseline measurement ([2]; 87.5 mg daily, N 6): 93.4 ± 11.0 | Average Isovolumetric Relaxation, Follow-up measurement ([2]; 87.5 mg daily, N 6): 86.4 ± 15.3 | Average Isovolumetric Relaxation, Difference, FU − BL ([2]; 87.5 mg twice daily, N 4): 5.2 ± 12.6 | Average Isovolumic Contraction, Baseline measurement ([2]; 87.5 mg twice daily, N 4): 84.1 ± 20.3 | Average Isovolumic Contraction, Difference, FU − BL ([2]; 87.5 mg twice daily, N 4): 4.1 ± 12.1 | Tissue Doppler MPI, Baseline measurement ([2]; 87.5 mg twice daily, N 4): 0.540 ± 0.019 | Tissue Doppler MPI, Difference, FU − BL ([2]; 87.5 mg twice daily, N 4): 0.060 ± 0.068 | Average Isovolumetric Relaxation, Baseline measurement ([2]; 87.5 mg twice daily, N 4): 72.3 ± 10.5 | Blood Pool MPI, Baseline measurement ([2]; 87.5 mg twice daily, N 5): 0.548 ± 0.136 | Blood Pool MPI, Difference, FU − BL ([2]; 87.5 mg twice daily, N 5): −0.118 ± 0.090 | Average Isovolumic Contraction, Follow-up measurement ([2]; 87.5 mg twice daily, N 6): 83.8 ± 26.4 | Blood Pool MPI, Follow-up measurement ([2]; 87.5 mg twice daily, N 6): 0.410 ± 0.078 | Tissue Doppler MPI, Follow-up measurement ([2]; 87.5 mg twice daily, N 6): 0.638 ± 0.168 | Average Isovolumetric Relaxation, Follow-up measurement ([2]; 87.5 mg twice daily, N 6): 82.4 ± 11.4 | Average Isovolumetric Relaxation, Difference, FU − BL ([2]; 125 mg daily, N 5): −5.4 ± 11.1 | Average Isovolumic Contraction, Difference, FU − BL ([2]; 125 mg daily, N 5): −8.0 ± 24.6 | Average Isovolumic Contraction, Follow-up measurement ([2]; 125 mg daily, N 5): 150.5 ± 60.5 | Blood Pool MPI, Difference, FU − BL ([2]; 125 mg daily, N 5): −0.054 ± 0.180 | Blood Pool MPI, Follow-up measurement ([2]; 125 mg daily, N 5): 0.696 ± 0.202 | Tissue Doppler MPI, Difference, FU − BL ([2]; 125 mg daily, N 5): −0.074 ± 0.141 | Tissue Doppler MPI, Follow-up measurement ([2]; 125 mg daily, N 5): 0.822 ± 0.271 | Average Isovolumetric Relaxation, Follow-up measurement ([2]; 125 mg daily, N 5): 96.8 ± 17.4 | Average Isovolumic Contraction, Baseline measurement ([2]; 125 mg daily, N 6): 152.4 ± 64.4 | Blood Pool MPI, Baseline measurement ([2]; 125 mg daily, N 6): 0.728 ± 0.155 | Tissue Doppler MPI, Baseline measurement ([2]; 125 mg daily, N 6): 0.861 ± 0.323 | Average Isovolumetric Relaxation, Baseline measurement ([2]; 125 mg daily, N 6): 99.5 ± 25.0 | Average Isovolumetric Relaxation, Difference, FU − BL ([2]; All subjects, N 26): 0.1 ± 14.4 | Average Isovolumic Contraction, Difference, FU − BL ([2]; All subjects, N 26): −4.6 ± 28.3 | Tissue Doppler MPI, Difference, FU − BL ([2]; All subjects, N 26): −0.056 ± 0.198 | Blood Pool MPI, Difference, FU − BL ([2]; All subjects, N 27): −0.059 ± 0.134 | Average Isovolumic Contraction, Baseline measurement ([2]; All subjects, N 28): 115.6 ± 50.5 | Average Isovolumic Contraction, Follow-up measurement ([2]; All subjects, N 28): 107.1 ± 41.3 | Blood Pool MPI, Follow-up measurement ([2]; All subjects, N 28): 0.517 ± 0.165 | Tissue Doppler MPI, Baseline measurement ([2]; All subjects, N 28): 0.760 ± 0.299 | Tissue Doppler MPI, Follow-up measurement ([2]; All subjects, N 28): 0.707 ± 0.201 | Average Isovolumetric Relaxation, Baseline measurement ([2]; All subjects, N 28): 91.2 ± 22.2 | Average Isovolumetric Relaxation, Follow-up measurement ([2]; All subjects, N 28): 92.0 ± 23.8 | Blood Pool MPI, Baseline measurement ([2]; All subjects, N 29): 0.581 ± 0.197 | Improvement in Blood Pool MPI ([2]; some patients, baseline to day 5): ≤ 21.5% | T1/2 ([3]; in vivo): 11 to 13 h | Tmax ([3]; in vivo): 1.0 to 1.5 h | half-life ([3]; in vivo): 7.3 to 12.1 h | time to steady state ([3]; multiple dosing, previous studies): 5 days | erectile function (ED patients): significantly improved
